From patent US12195430B1, “6-(4,5-bis(4-bromophenyl)-2-(4-methoxyphenyl)-1H-imidazol-1-yl)hexanoic acid as an antimicrobial compound” (KING FAISAL UNIVERSITY, priority 2023, dated 2025) come the findings set out here.

Type in all cases: cell-based
For one assay, the system named is Staphylococcus aureus. Put plainly: Agar plate disc-diffusion, antibacterial inhibition zone. As to conditions: nutrient agar, 37° C., 48 h. Here is the method:
(§1) The agar plate disc-diffusion method was applied. […] The discs were then placed onto the surface of agar plates (nutrient agar for bacteria and Sabouraud's dextrose agar for fungi) seeded with the test organism. Each plate contained 15 mL of the agar medium, previously seeded with 0.2 mL of the broth culture of each organism pregrown for 18 h. The plates were incubated at 37° C. for 48 h, and 72 h for fungi. The inhibition zones was measured in mm. Discs impregnated with DMSO were used as a control, and its inhibition zone was subtracted from the tested compound actual inhibition zone.

A further assay relates to Pseudomonas aeruginosa. The description is as above. To be noted: nutrient agar, 37° C., 48 h. Here is the method: as §1
For another assay, the system named is Bacillus cereus. The description is as above. As to conditions: nutrient agar, 37° C., 48 h. Here is the method:
as §1

A further assay has as its system Escherichia coli. The description is as above. To be noted: nutrient agar, 37° C., 48 h. Here is the method:
as §1

The test system of the next assay is Aspergillus flavus. In words: Agar plate disc-diffusion, antifungal inhibition zone. To be noted: Sabouraud's dextrose agar, 72 h. Here is the method:
as §1
(Agar diffusion results depend on both activity and mobility in agar.)

For assay [1], the system named is Chrysosporium keratinophilum. Described as above. As to conditions: Sabouraud's dextrose agar, 72 h. Here is the method:
as §1

Setting [2] is: A = concentration of comp. = 10,000 μL.
[3] abbreviates: B = concentration of comp. = 30,000 μL.
Where [4] appears, read: C = concentration of comp. = 50,000 μL.

Structures are written as SMILES.

For `COc1ccc(-c2nc(-c3ccc(Br)cc3)c(-c3ccc(Br)cc3)n2CCCCCC(=O)O)cc1` [V, 6-(4,5-bis(4-bromophenyl)-2-(4-methoxyphenyl)-1H-imidazol-1-yl)hexanoic acid], the entries for the “inhibition zone, Staphylococcus aureus” value in the assay on Staphylococcus aureus (setting [2]), with Staphylococcus aureus (setting [3]) and in the assay on Staphylococcus aureus (setting [4]) were 21 mm, 28 mm and 38 mm, respectively. Also, the “inhibition zone, Pseudomonas aeruginosa” value was found to be 26 mm with Pseudomonas aeruginosa (setting [2]), 28 mm in the assay with Pseudomonas aeruginosa (setting [3]) and 40 mm in the assay on Pseudomonas aeruginosa (setting [4]). Besides, the “inhibition zone, Bacillus Cereus” value is 18 mm in the assay on Bacillus cereus (setting [2]), 20 mm with Bacillus cereus (setting [3]) and 35 mm in the assay on Bacillus cereus (setting [4]). The “inhibition zone, Escherichia coli” value was determined as 27 mm in the assay on Escherichia coli (setting [2]), 35 mm in the assay on Escherichia coli (setting [3]) and 49 mm with Escherichia coli (setting [4]). The “inhibition zone, Aspergillus flavus” value in the assay with Aspergillus flavus (setting [2]) is on record as 25 mm; with Aspergillus flavus (setting [3]), 28 mm; in the assay on Aspergillus flavus (setting [4]) it was 35 mm. Besides, the results for the “inhibition zone, Chrysosporium keratinophilum” value in assay [1] (setting [2]), in assay [1] (setting [3]) and in assay [1] (setting [4]) were 25 mm, 27 mm and 47 mm, respectively.

With `O=C(O)c1cn(C2CC2)c2cc(N3CCNCC3)c(F)cc2c1=O` [Cip., reference compound], the “inhibition zone, Bacillus Cereus” value with Bacillus cereus (setting [3]) was found to be 31 mm. Besides, the figures for the “inhibition zone, Aspergillus flavus” value in the assay on Aspergillus flavus (setting [2]), in the assay on Aspergillus flavus (setting [3]) and with Aspergillus flavus (setting [4]) were 28 mm, 31 mm and 43 mm, respectively. The “inhibition zone, Chrysosporium keratinophilum” value in assay [1] (setting [3]) is reported as 33 mm; in assay [1] (setting [4]), 55 mm.
